Where two headings read alike, the source gives them in different places.
Tests used:
in vitro = conditions: African green monkey, CC50, Table 1; VeroE6 cells, WST-8
SARS-CoV-2 M^pro/3CL^pro = SARS-CoV-2 M^pro/3CL^pro (Severe acute respiratory syndrome coronavirus 2, UniProt P0DTD1); experiment: biochemical; conditions: for IC50 fold change to 5h (in parentheses): Table 1
[1] = tested on: SARS-CoV-2 WK-521 (ancestral Wuhan strain); format: cell-based; conditions: Table 2; VeroE6 cells, RNA-qPCR
[2] = tested on: SARS-CoV-2 WK-521 infected VeroE6 cells; conditions: concentrations up to 100 μM (Figure S3)
[3] = mice
in vivo = conditions: female, Jcl:ICR (ICR), mouse, iv, 2 mg/kg, mice, i.v. 2.0 mg/kg, 240 min

COc1ccc(F)c2[nH]c(C(=O)N[C@@H](CC(C)C)C(=O)N[C@@H](C[C@@H]3CCNC3=O)C(=O)c3nc4c(F)cccc4s3)cc12 [Compound 3]
CC50 (in vitro): > 100000 nM | IC50 (SARS-CoV-2 M^pro/3CL^pro): 37 ± 1 nM | IC50 fold change to 5h (in parentheses) (SARS-CoV-2 M^pro/3CL^pro): 0.10 | EC75 [1]: 460 ± 20 nM | EC99 [1]: 0.97 ± 0.0020 µM | cytotoxicity in immunostaining experiments [2]: no significant cytotoxicity at concentrations up to 100 μM

COc1ccc(F)c2[nH]c(C(=O)N[C@@H](CC(C)C)C(=S)N[C@@H](C[C@@H]3CCNC3=O)C(=O)c3nc4c(F)cccc4s3)cc12 [Compound 4]
CC50 (in vitro): > 100000 nM | IC50 (SARS-CoV-2 M^pro/3CL^pro): 370 ± 15 nM | IC50 fold change to 5h (in parentheses) (SARS-CoV-2 M^pro/3CL^pro): 1.0 | blood concentrations after administration ([3]; i.p. 20 mg/kg): maintained remarkably higher blood concentrations than compound 3 | blood concentrations after administration ([3]; i.v. 2.0 mg/kg): higher blood concentrations of compound 4 were maintained compared with those of compound 3 after 60 min, and even 240 min | blood concentrations after administration ([3]; p.o.): maintained remarkably higher blood concentrations for the first day than compound 3 | EC75 [1]: 590 ± 30 nM | EC99 [1]: 4.1 ± 3.1 µM | cytotoxicity in immunostaining experiments [2]: no significant cytotoxicity at concentrations up to 100 μM

CC(C)C[C@H](NC(=O)c1cc2c(F)ccc(F)c2[nH]1)C(=O)N[C@@H](C[C@@H]1CCNC1=O)C(=O)c1nc2cc(F)ccc2s1 [Compound 44]
half-life (in vivo): ~30 min | CC50 (in vitro): > 100000 nM | IC50 (SARS-CoV-2 M^pro/3CL^pro): 120 ± 10 nM | IC50 fold change to 5h (in parentheses) (SARS-CoV-2 M^pro/3CL^pro): 0.34

CC(C)C[C@H](NC(=O)c1cc2c(F)cc(F)cc2[nH]1)C(=O)N[C@@H](C[C@@H]1CCNC1=O)C(=O)c1nc2cc(F)ccc2s1 [Compound 54]
CC50 (in vitro): > 100000 nM | IC50 (SARS-CoV-2 M^pro/3CL^pro): 540 ± 20 nM | IC50 fold change to 5h (in parentheses) (SARS-CoV-2 M^pro/3CL^pro): 1.5

COc1cccc2[nH]c(C(=O)N[C@@H](CC(C)C)C(=S)N[C@@H](C[C@@H]3CCNC3=O)C(=O)c3nc4ccccc4s3)cc12 [Compound 60]
half-life (in vivo): 50 to 60 min | CC50 (in vitro): > 100000 nM | IC50 (SARS-CoV-2 M^pro/3CL^pro): 990 ± 60 nM | IC50 fold change to 5h (in parentheses) (SARS-CoV-2 M^pro/3CL^pro): 2.8 | blood concentrations after administration ([3]; i.v. 2.0 mg/kg): High blood concentrations of compound 60 were maintained after 60 min, and even 240 min had passed | half-life, times longer than that of the parent compound ([3]; i.v. 2.0 mg/kg, relative to 5h (2)): 2–3 times

CC(C)(C)[C@H](NC(=O)C(F)(F)F)C(=O)N1C[C@H]2[C@@H]([C@H]1C(=O)N[C@H](C#N)C[C@@H]1CCNC1=O)C2(C)C [PF-07321332 (1), Nirmatrelvir, reference compound]
half-life (in vivo): < 23 min | CC50 (in vitro): > 100000 nM | EC75 [1]: 4400 ± 210 nM | EC99 [1]: 9.7 ± 0.015 µM

CCC(CC)COC(=O)[C@H](C)N[P@](=O)(OC[C@H]1O[C@@](C#N)(c2ccc3c(N)ncnn23)[C@H](O)[C@@H]1O)Oc1ccccc1 [Remdesivir, reference compound]
CC50 (in vitro): > 100000 nM

From PMC9623849 (iScience, 2022)
